PubChem BioAssay AID366 (MTDP, 2006)
Several values for one entry are separate records, joined by “and”; a condition that tells them apart may be missing. Identical values can stand only once. Activity calls are given as the source filed them. The rule behind the calls is not given here.

The compounds below were run against Ribonuclease H1 (Homo sapiens) (UniProt O60930) (assay: inhibition of human ribonuclease H1 activity – biochemical, FRET RNA/DNA duplex cleavage, dose response (AID 366;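 note: potency is for inhibitors that lower RNA cleavage and so lower fluorescence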)). Conditions: human RNase H1, FRET RNA/DNA duplex cleavage, fluorescence.
Sequence of Ribonuclease H1 (Homo sapiens) (O60930 whole entry, looked up): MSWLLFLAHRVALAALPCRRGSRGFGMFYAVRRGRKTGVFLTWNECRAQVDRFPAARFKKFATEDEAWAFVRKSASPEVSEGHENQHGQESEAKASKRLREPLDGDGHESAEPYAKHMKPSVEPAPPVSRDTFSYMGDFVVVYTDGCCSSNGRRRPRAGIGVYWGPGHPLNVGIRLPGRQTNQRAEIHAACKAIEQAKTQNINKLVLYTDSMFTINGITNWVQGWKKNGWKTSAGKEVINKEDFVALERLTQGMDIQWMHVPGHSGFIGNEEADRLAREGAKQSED

| SMILES | IC50 |
| --- | --- |
| O=C1c2cc([N+](=O)[O-])ccc2-c2ccc3c4ccc5c6c(ccc(c7ccc1c2c73)c64)C(=O)c1cc([N+](=O)[O-])ccc1-5 | 400 nM |
| O=C1c2ccc(O)cc2C(=O)c2c1ccc(O)c2O | 7000 nM |
| c1ccc(C(c2cccc3c2ccc2ccccc23)C(c2ccccc2)c2cccc3c2ccc2ccccc23)cc1 (configuration not stated) | 3600 nM |
| CC1=C(CCC(=O)O)c2cc3nc(cc4[nH]c(cc5[nH]c(cc1n2)c(C)c5C(C)O)c(C)c4C(C)O)C(C)=C3CCC(=O)O (configuration not stated) | 400 nM |
| CC1=NN(c2ccc(S(N)(=O)=O)cc2)C(=O)/C1=C/c1ccc(-c2ccc(Cl)cc2Cl)o1 | 750 nM |
| Cc1ccc(C=C2C(=O)NC(=S)N(c3ccccc3Cl)C2=O)o1 | inactive |
| COc1ccccc1NC(=O)c1c(NC(=O)Cc2ccccc2)sc2c1CCCCC2 | 480 nM |
| CC(C)=CCC1=C(O)[C@@](O)(CC=C(C)C)C(=O)C(C(=O)CC(C)C)=C1O | 2000 nM |
| O=C1C(Cl)=C(NC(=O)c2ccccc2)C(=O)C(Cl)=C1NC(=O)c1ccccc1 | inactive |
| COc1cc(-c2[o+]c3cc(O)cc(O)c3cc2O)cc(O)c1O | 2400 nM and 4000 nM |
| Cc1ccc(C(=O)Nc2sc(C)c(C)c2C(N)=O)cc1 | 800 nM |
| Cc1ccc(NC(=O)c2c(NC(=O)c3ccccc3F)sc3c2CCCCC3)cc1 | 320 nM |
| CC(C)c1cccc(O)c(=O)c1 | > 100000 nM (inactive) |
| Cc1ccc(C)n1-c1ccc(O)c(C(=O)O)c1 | 900 nM |
| Cc1ccc(N2C(=O)/C(=C/c3ccc(O)c(O)c3)SC2=S)cc1C | 4000 nM |
| CCc1c(O)c2c(c(O)c1C(C)=O)C(=O)c1c(cc(O)c(C(=O)O)c1C(=O)O)C2=O | 3600 nM |
| O=C(O)c1cc(-c2ccc(/C=C3/Sc4ccccc4C3=O)o2)ccc1O | 400 nM |
| COc1ccc(-c2c(C#N)c(N)nc(SCC(=O)c3ccc(O)c(O)c3)c2C#N)cc1 | 1100 nM |
| C=C/C(C)=C/C[C@]1(C)[C@H](C)CC[C@@]23C(=C[C@H](OC(=O)c4ccc(O)c(OC)c4)C[C@@H]12)[C@@H](OC(C)=O)O[C@H]3OC(C)=O | 4000 nM |

| SMILES | IC50 |
| --- | --- |
| O=C1C(Cl)=C(Nc2ccc(S(=O)(=O)Nc3ccccn3)cc2)C(=O)c2ccccc21 | inactive |
| O=C1C=CC2=C3c4cc(O)c(O)cc4CC3(O)COC2=C1O (configuration not stated) | 200 nM |
| Nc1c(S(=O)(=O)O)cc(Nc2cccc(S(N)(=O)=O)c2)c2c1C(=O)c1ccccc1C2=O | 2600 nM |
| O=C(N/N=C/c1ccccc1Cl)c1cc(O)c(O)c(O)c1 | inactive |
| CC(=O)C1=C(O)[C@@]2(O)C(=O)c3c(c(C)c4ccc(C)c(O)c4c3O)C[C@H]2[C@@H](N)C1=O | 700 nM |
| C[C@]12Cc3cnc(-c4ccccc4)nc3C[C@@H]1CC[C@@H]1[C@@H]2CC[C@@]2(C)[C@H]1CC[C@]2(C)O | 2800 nM |
| Cc1cccc(NC(=O)c2c(NC(=O)c3ccc([N+](=O)[O-])cc3)sc3c2CCCC3)c1 | 580 nM |
| COc1cccc(-c2nc3cc(NC(=O)/C=C\c4ccccc4)ccc3o2)c1 | 800 nM |
| CC(=O)O[C@H](C)[C@@H]1C2=C(C(=O)C[C@]1(C)O)C(=O)c1c(ccc(-c3ccc4c(c3O)C(=O)C3=C(C4=O)[C@@H]([C@@H](C)OC(C)=O)[C@@](C)(O)CC3=O)c1O)C2=O | 6000 nM |
| C[C@@H]1Oc2c3c(c4c(-c5ccccc5)cc(=O)oc4c2C(=O)[C@H]1C)OC(C)(C)C=C3 | 3100 nM |
| CCOc1ccc(NC(=O)c2c(NC(=O)c3ccco3)sc3c2CCCCC3)cc1 | 2100 nM |
| CN(C)CN1CSC(=S)N(CN(C)C)C1 | inactive |
| CC(C)=Cc1cc(CCC/C(C)=C/Cc2c(O)cc(C)c(C(=O)O)c2O)co1 | 1100 nM |
| COc1ccc(-c2nc3sc(-c4ccc(OC)cc4)nc3s2)cc1 | inactive |
| O=[N+]([O-])c1ccc2c(N=Nc3ccc4ccccc4c3O)c(O)cc(S(=O)(=O)O)c2c1 | 300 nM |
| COc1ccccc1N=C(NOCc1ccc(Cl)cc1Cl)c1nonc1N | 8800 nM |
| COc1cc([C@@H]2c3cc4c(cc3C[C@H]3COC(=O)[C@@H]32)OCO4)cc(OC)c1O | 1800 nM |
| Cc1cc(-c2ccc(C=C3C(=O)NC(=S)NC3=O)o2)c([N+](=O)[O-])cc1C | 4000 nM |
